Results published in ChEMBL document CHEMBL6087448, “Eradication of Therapy-Resistant Cancer Stem Cells by Novel Telmisartan Derivatives” (J Med Chem, 2025).
≈ marks a conversion by molar mass, not a printed value. Calls of active or inactive are those of the source. The rule behind the calls is not given here.

Legend:
K-562R [1] = assay: Enhancement of imatinib-induced anti-metabolic activity in human K562-r cells at 0.5 to 8 uM measured after 72 hrs by MTT assay relative to control; format: functional; settings: dose 0.5-8 µM
[2] = tested on: Paclitaxel-resistant IGROV-1 cell; assay: Enhancement of paclitaxel-induced anti-metabolic activity in human Paclitaxel-resistant IGROV-1 cells assessed as reduction in metabolic activity upto 300 nM measured after 72 hrs by MTT assay; format: functional, cell-based
[3] = tested on: Paclitaxel-resistant A2780; assay: Inhibition of STAT5 phosphorylation in human Paclitaxel-resistant A2780 cells expressing ABCB1 at 10 uM incubated for 72 hrs by Western blotting based immunoassay; format: cell-based
PBMC [4] = assay: Effect on colony formation in human PBMC derived from healthy donors at 10 uM measured after 2 weeks in presence of imatinib by inverted microscopic analysis; format: functional, cell-based
COS-7 = assay: Cytotoxicity against African green monkey COS-7 cells assessed as reduction in metabolic activity at 10 uM incubated for 72 hrs by MTT assay; format: toxicity, cell-based; settings: chlorocebus aethiops, cos-7, 72 h
[5] = tested on: Docetaxel-resistant DU145 cell; assay: Inhibition of side population phenotype in human Docetaxel-resistant DU145 cell expressing ABCB1 at 10 uM incubated for 90 mins by DCV staining based flow cytometric analysis; format: functional
A2780/Taxol [6] = assay: Inhibition of side population phenotype in human Paclitaxel-resistant A2780 cells expressing ABCB1 at 10 uM incubated for 90 mins by DCV staining based flow cytometric analysis; format: functional, cell-based
A549 [7] = assay: Inhibition of STAT5 phosphorylation in human A549 cells at 10 uM incubated for 72 hrs by Western blotting based immunoassay; format: cell-based
PBMC [8] = assay: Inhibition of colony formation in human PBMC derived from TKI naive CML patients assessed as reduction in number of colonies at 1 uM incubated for 14 days in presence of imatinib by inverted microscopic analysis; format: functional, cell-based; settings: time 14.0 day
[9] = tested on: Paclitaxel-resistant IGROV-1 cell; assay: Downregulation of STAT5 protein expression in human Paclitaxel-resistant IGROV-1 cells expressing ABCB1 at 10 uM incubated for 72 hrs by Western blotting based immunoassay; format: functional
[10] = Permeability of compound; format: ADME; settings: not told; read-out: permeability
K-562R [11] = assay: Sensitization of imatinib-induced cytotoxicity against human K562-r cells assessed as cell viability at 10 uM measured after 72 hrs by MTT assay relative to control; format: functional; settings: read-out: Activity
K562-r [12] = assay: Effect on STAT5 phosphorylation in human K562-r cells at 4 uM measured after 6 hrs by Western blotting based immunoassay; format: cell-based
K-562R [13] = assay: Cytotoxicity against human K562-r cells assessed as reduction in metabolic activity at 10 uM incubated for 72 hrs by MTT assay; format: functional, cell-based
K562-r [14] = assay: Inhibition of STAT5 phosphorylation in human K562-r cells at 4 uM measured after 6 hrs in presence of imatinib by Western blotting based immunoassay; format: cell-based
[15] = tested on: Paclitaxel-resistant IGROV-1 cell; assay: Inhibition of STAT5 phosphorylation in human Paclitaxel-resistant IGROV-1 cells expressing ABCB1 at 10 uM incubated for 72 hrs by Western blotting based immunoassay
[16] = tested on: Docetaxel-resistant DU145 cell; assay: Enhancement of docetaxel-induced anti-metabolic activity against human Docetaxel-resistant DU145 cell assessed as reduction in metabolic activity at 10 uM measured after 72 hrs by MTT assay; format: functional, cell-based
MCF7 [17] = assay: Inhibition of side population phenotype in human MCF7 cells expressing ABCG2 at 10 uM incubated for 90 mins by DCV staining based flow cytometric analysis; format: functional, cell-based
A2780/Taxol [18] = assay: Sensitization of paclitaxel-induced cytotoxicity against human Paclitaxel-resistant A2780 cells assessed as reduction in metabolic activity at 10 uM measured after 72 hrs by MTT assay; format: functional, cell-based
K-562R [19] = assay: Effect on ABCB1 protein expression in human K562-r cells at 4 uM incubated for 72 hrs by Western blotting based immunoassay; format: functional, cell-based
[20] = tested on: Docetaxel-resistant PC-3 cell; assay: Enhancement of docetaxel-induced anti-metabolic activity against human Docetaxel-resistant PC-3 cell assessed as reduction in metabolic activity at 10 uM measured after 72 hrs by MTT assay; format: functional, cell-based
PBMC [21] = assay: Effect on colony formation in human PBMC derived from healthy donors at 10 uM measured after 2 weeks by inverted microscopic analysis; format: functional, cell-based
MCF7 [22] = assay: Effect on STAT5 protein expression in human MCF7 cells at 10 uM incubated for 72 hrs by Western blotting based immunoassay; format: functional, cell-based
A549 [23] = assay: Inhibition of side population phenotype in human A549 cells expressing ABCC1 at 10 uM incubated for 90 mins by DCV staining based flow cytometric analysis; format: functional, cell-based
A549 [24] = assay: Effect on STAT5 protein expression in human A549 cells at 10 uM incubated for 72 hrs by Western blotting based immunoassay; format: functional, cell-based
[25] = Intrinsic clearance in rat hepatocytes measured per 10^6 cells; format: ADME, cell-based, Hepatocyte; settings: read-out: CLH
[26] = tested on: Paclitaxel-resistant IGROV-1 cell; assay: Inhibition of side population phenotype in human Paclitaxel-resistant IGROV-1 cells expressing ABCB1 at 10 uM incubated for 90 mins by DCV staining based flow cytometric analysis; format: functional
[27] = Aqueous solubility of compound measured after 48 hrs by HPLC analysis; format: physicochemical; settings: buffer
K-562R [28] = assay: Sensitization of imatinib-induced cytotoxicity against human K562-r cells assessed as reduction in metabolic activity at 0.5 to 10 uM measured after 72 hrs by MTT assay; format: functional, cell-based; settings: dose 0.5-10 µM
K562-r [29] = assay: Inhibition of STAT5 phosphorylation in human K562-r cells at 4 uM measured after 72 hrs by Western blotting based immunoassay; format: cell-based
A2780/Taxol [30] = assay: Effect on STAT5 protein expression in human Paclitaxel-resistant A2780 cells expressing ABCB1 at 10 uM incubated for 72 hrs by Western blotting based immunoassay; format: functional, cell-based
MCF7 [31] = assay: Inhibition of STAT5 phosphorylation in human MCF7 cells at 10 uM incubated for 72 hrs by Western blotting based immunoassay; format: cell-based
K-562R [32] = assay: (§1) Inhibition of side population phenotype in human K562-r cells at 10 uM incubated for 90 mins by DCV staining based flow cytometric analysis relative to control; format: functional
[33] = Apparent permeability across apical to basolateral side in human Caco-2 cells at 10 uM by LC-MS/MS analysis
[34] = Apparent permeability across basolateral to apical side in human Caco-2 cells at 10 uM by LC-MS/MS analysis
K-562R [35] = assay: Restoration of imatinib accumulation in human K562-r cells at 10 uM preincubated with compound for 1 hrs followed by imatinib addition and measured after 2 hrs by UHPLC-SIM-MS analysis; format: functional, cell-based; settings: time 3.0 hrs
[36] = tested on: Docetaxel-resistant PC-3 cell; assay: Inhibition of side population phenotype in human Docetaxel-resistant PC-3 cell expressing ABCB1 at 10 uM incubated for 90 mins by DCV staining based flow cytometric analysis; format: functional
K-562R [37] = assay: Inhibition of side population phenotype in human K562-r cells at 0.1 to 10 uM incubated for 90 mins by DCV staining based flow cytometric analysis; format: functional, cell-based; settings: dose 0.1-10 µM
[38] = as §1; format: functional; settings: K-562R
[39] = Cytotoxicity against human Docetaxel-resistant DU145 cell assessed as metabolic activity at 12.5 nM measured after 72 hrs by MTT assay relative to control; format: functional

SMILES	Activity [2]	inhibition [3]	Activity (PBMC [4])	Activity (COS-7)	inhibition [5]	inhibition (A2780/Taxol [6])	inhibition (A549 [7])	inhibition (PBMC [8])	Activity (K562-r [12])	Activity (K-562R [13])	inhibition (K562-r [14])	inhibition [15]	Activity [16]	inhibition (MCF7 [17])	Activity (A2780/Taxol [18])	Activity (K-562R [19])	Activity [20]	Activity (PBMC [21])	Activity (MCF7 [22])	inhibition (A549 [23])	further results
CCCc1nc2c(C)cc(-c3nc4ccccc4n3C)cc2n1Cc1ccc(-c2ccccc2C(=O)O)cc1	Active	Active	inactive	Non-toxic	Active; Modest Effect Observed	Active; Modest Effect Observed	Active	inactive	inactive	inactive	Active	Active	inactive	Active	Active	inactive	Active; Marginal Activity Observed	inactive	inactive	Active	Activity (K-562R [1]): <50%; Activity [9]: Active; Papp [10]: 29 ×10⁻⁶ cm/s; viability at 10 µM (K-562R [11]): 34%; Activity (A549 [24]): inactive; hepatocyte CLint [25]: 23 µL/min/1e6 cells; inhibition [26]: Active; Modest Effect Observed; solubility at 48 h [27]: 19.2 µM (≈ 9.88 µg/mL); Activity (K-562R [28]): Active; Marginal Enhancement Of Imatinib Activity Observed; inhibition (K562-r [29]): Active; Lesser Effect Observed; Activity (A2780/Taxol [30]): inactive; inhibition (MCF7 [31]): Active; inhibition (K-562R [32]): inactive
CCCc1nc2c(C)cc(-c3nc4ccccc4n3C)cc2n1Cc1ccc(-c2ccccc2C(=O)OC)cc1	inactive	Active	inactive	Non-toxic	Active	Active	Active	Active	inactive	inactive	Active	inactive	Active	Active	Active	inactive	Active; Marginal Activity Observed	inactive	inactive	Active	Papp A→B at 10 µM [33]: 0.1 ×10⁻⁶ cm/s; Activity (A549 [24]): inactive; inhibition [26]: Active; Papp B→A at 10 µM [34]: 0.2 ×10⁻⁶ cm/s; Activity (K-562R [35]): Active; inhibition [36]: Active; inhibition (K562-r [29]): Active; Lesser Effect Observed; inhibition (K-562R [37]): Active; Similar To Valspodar; Activity (A2780/Taxol [30]): inactive; inhibition (MCF7 [31]): Active; inhibition at 10 µM [38]: 100%
CC(=O)O[C@@]12CO[C@@H]1C[C@H](O)[C@@]1(C)C(=O)[C@H](O)C3=C(C)[C@@H](OC(=O)[C@H](O)[C@@H](NC(=O)OC(C)(C)C)c4ccccc4)C[C@@](O)([C@@H](OC(=O)c4ccccc4)[C@H]21)C3(C)C [DOCETAXEL ANHYDROUS]																					Activity [39]: >80%
